From patent US20230322753A1, “HETEROARYL DERIVATIVE, METHOD FOR PREPARATION THEREOF, AND PHARMACEUTICAL COMPOSITION COMPRISING SAME AS ACTIVE INGREDIENT” (VORONOI INC., priority 2020, published 2023)

The compounds below were run on Ba/F3 cells expressing EGFR Exon20 ins NPH (assay: Ba/F3 proliferation suppression activity, cells expressing EGFR Exon20 ins NPH). Settings: Mus musculus, BaF3, 72 hours, CellTiter-Glo.
Type: cell-based
Description: A following experiment was carried out to evaluate the suppression activity of the compounds according to the present invention against the proliferation of Ba/F3 which expresses EGFR mutations.
For the Ba/F3 cells, a RPMI-1640 medium containing 10% FBS and 5 ng/ml IL-3 (R&D Systems) was used. The transduced Ba/F3 cells were cultured in a medium, which is same as the above medium, but 1 ug/ml puromycin (Invitrogen) was additionally added to.
24 hours before the treatment of the cells with the compounds, 3000 to 5000 cells were distributed into each well of a white clear bottom 96 well plate (Corning). The compounds were diluted in a dimethyl sulfoxide (e.g. dilution ratio of 3:1 and total 12 concentrations) and then injected by 0.5 ul respectively, such that a final concentration amounted to 0.3 nM to 50 uM. 72 hours after the treatment with the compounds, the measurement of live cells was made in such way that these cells were stored for 10 minutes at a room temperature using a CellTiter-Glo luminescent cell-viability reagent (Promega) and then their luminescence intensities were measured using a reader (i.e. Synergy Neo, Biotek). Each test was repeated three times.
resulting values were calculated as a cell growth ratio (%) compared to a control. Then, the graphs were drawn and the […] values were calculated by using a program, GraphPad Prism version 5.0.

Compared with `C=CC(=O)Nc1cc(Nc2cc(N3OCC[C@@H]3c3cccc(C(F)(F)F)c3F)ncn2)c(OC)cc1N1CCC(N(C)C)CC1` [Compound 82], `C=CC(=O)Nc1cc(Nc2cc(N3OCC[C@@H]3c3cccc(C(F)(F)F)c3F)ncn2)c(OC)cc1N1CC[C@@H](N(C)C)C1` [Compound 88] is higher in GI50: < 50 nM for the first, 50 to 500 nM for the second.

First: C=CC(=O)Nc1cc(Nc2cc(N3OCC[C@@H]3c3cccc(C(F)(F)F)c3F)ncn2)c(OC)cc1N1CCC(N2CCN(C3CC3)C(C)(C)C2)CC1 [Compound 83]
Second: C=CC(=O)Nc1cc(Nc2cc(N3OCC[C@@H]3c3cccc(C(F)(F)F)c3F)ncn2)c(OC)cc1N1CCC(N2CCN(C)CC2)CC1 [Compound 90]
The GI50 of the first is higher: 50 to 500 nM for the first, < 50 nM for the second.

Compared with `C=CC(=O)Nc1cc(Nc2cc(N3OCC[C@@H]3c3cccc(C(F)(F)F)c3F)ncn2)c(OC)cc1N1CCC(N2CCN(C3COC3)CC2)CC1` [Compound 84], `C=CC(=O)Nc1cc(Nc2cc(N3OCC[C@@H]3c3cccc(C(F)(F)F)c3F)ncn2)c(OC)cc1N1CCC(N2CCN(C(C)=O)CC2)CC1` [Compound 91] is higher in GI50: < 50 nM for the first, 50 to 500 nM for the second.

Compared with `C=CC(=O)Nc1cc(Nc2cc(N3OCC[C@@H]3c3cccc(C(F)(F)F)c3F)ncn2)c(OC)cc1N1CCN(C)C(=O)C1` [Compound 85], `C=CC(=O)Nc1cc(Nc2cc(N3OCC[C@@H]3c3cccc(C(F)(F)F)c3F)ncn2)c(OC)cc1N1CCN(CCC)CC1` [Compound 93] is lower in GI50: 50 to 500 nM for the first, < 50 nM for the second.

`C=CC(=O)Nc1cc(Nc2cc(N3OCC[C@@H]3c3cccc(C(F)(F)F)c3F)ncn2)c(OC)cc1N1C[C@H]2C[C@@H]1CO2` [Compound 86] and `C=CC(=O)Nc1cc(Nc2cc(N3OCC[C@@H]3c3cccc(C(F)(F)F)c3F)ncn2)c(OC)cc1N1C[C@@H]2C[C@H]1CO2` [Compound 92] fall in the same range of GI50: 50 to 500 nM for the first, 50 to 500 nM for the second.

`C=CC(=O)Nc1cc(Nc2cc(N3OCC[C@@H]3c3cccc(C(F)(F)F)c3F)ncn2)c(OC)cc1N(C)CCNC` [Compound 87] and `C=CC(=O)Nc1cc(Nc2cc(N3OCC[C@@H]3c3cccc(C(F)(F)F)c3F)ncn2)c(OC)cc1N1CC[C@@H](CN(C)C)C1` [Compound 95] cannot be ordered by GI50: < 50 nM for the first, < 50 nM for the second.

`C=CC(=O)Nc1cc(Nc2cc(N3OCC[C@@H]3c3cccc(C(F)(F)F)c3F)ncn2)c(OC)cc1N1CCC(N2C[C@H]3C[C@@H]2CO3)CC1` [Compound 89] and `C=CC(=O)Nc1cc(Nc2cc(N3OCC[C@@H]3c3cccc(C(F)(F)F)c3F)ncn2)c(OC)cc1N1CCC(N2C[C@@H]3C[C@H]2CO3)CC1` [Compound 96] cannot be ordered by GI50: < 50 nM for the first, < 50 nM for the second.

`C=CCN1CCN(c2cc(OC)c(Nc3cc(N4OCC[C@@H]4c4cccc(C(F)(F)F)c4F)ncn3)cc2NC(=O)C=C)CC1` [Compound 94] and `C=CC(=O)Nc1cc(Nc2cc(N3OCC[C@@H]3c3cccc(C(F)(F)F)c3F)ncn2)c(OC)cc1N1CCC(N2CCNCC2)CC1` [Compound 97] cannot be ordered by GI50: < 50 nM for the first, < 50 nM for the second.

Compared with `C=CC(=O)Nc1cc(Nc2cc(N3OCC[C@@H]3c3cc(F)cc(F)c3)ccn2)c(OC)cc1N1CCC(N2CCN(C3CC3)CC2)CC1` [Compound 98], `C=CC(=O)Nc1cc(Nc2cc(N3OCC[C@@H]3c3cc(F)cc(F)c3)ccn2)c(OC)cc1N1CCN(C)CC1` [Compound 100] is higher in GI50: 50 to 500 nM for the first, 500 to 5000 nM for the second.

First: C=CC(=O)Nc1cc(Nc2cc(N3OCC[C@@H]3c3cc(F)cc(F)c3)ccn2)c(OC)cc1N(C)CCN(C)C [Compound 99]
Second: C=CC(=O)Nc1cc(Nc2cc(N3OCC[C@@H]3c3cc(F)cc(F)c3)ncn2)c(OC)cc1SCCN(C)C [Compound 101]
The GI50 of the first is higher: 50 to 500 nM for the first, < 50 nM for the second.

`C=CC(=O)Nc1cc(Nc2cc(N3OCC[C@@H]3c3cc(F)cc(F)c3)ncn2)c(OC)cc1N1CCSCC1` [Compound 107] and `C=CC(=O)Nc1cc(Nc2cc(N3OCC[C@@H]3c3cc(F)cc(F)c3)ncn2)c(OCC(F)(F)F)nc1N1CCN(C)CC1` [Compound 128] fall in the same range of GI50: 50 to 500 nM for the first, 50 to 500 nM for the second.

Compared with `C=CC(=O)Nc1cc(Nc2nccc(N3OCC[C@@H]3c3ccccc3)n2)c(OC)cc1N(C)CCN(C)C` [Compound 108], `C=CC(=O)Nc1cc(Nc2ncc(C(=O)OC(C)C)c(-c3cn(C)c4ccccc34)n2)c(OC)cc1N(C)CCN(C)C` [TAK788, reference compound] is lower in GI50: 50 to 500 nM for the first, < 50 nM for the second.

First: C=CC(=O)Nc1cc(Nc2cc(N3OCCC3c3cccc4c3cnn4C)ncn2)c(OC)cc1N1CCN(C)CC1 (centres unmarked) [Compound 125]
Second: C=CC(=O)Nc1cc(Nc2cc(N3OCCC3c3cccc4c3cnn4C)ncn2)c(OC)cc1N1CCC(N2CCN(C3CC3)CC2)CC1 (centres unmarked) [Compound 126]
The GI50 of the first is higher: 50 to 500 nM for the first, < 50 nM for the second.
